# In patent US20250161310A1, “PHARMACEUTICAL COMBINATIONS FOR USE IN THE TREATMENT OF NEOPLASTIC DISEASES” (priority 2022, published 2025):
# Marks after values point to notes of the source that are not given here.
# Columns and labels:
# [1] = system: BR1282 TNBC PDX tumor; assay: first PDX combination study (carboplatin first), BR1282
# Procedure: In a first PDX study, female BALB/c nude mice (CrownBio) of at least 20 g body weight were subcutaneously (s.c.) inoculated in the right flank with tumor fragments (3*3*3 mm) from stock mice bearing the patient-derived xenograft (PDX) triple negative breast cancer (TNBC) tumor, BR1282. Randomization into 5 different treatment groups (8 mice per group) was made when the mean tumor size was 150-200 mm^3. Mice were dosed intravenously (i.v.) twice weekly (2qw) with the compound of formula (I) (7 mg/kg, i.v., 5 mL/kg) or once weekly (qw) carboplatin (60 mg/kg, i.v., 10 mL/kg) or the combination of these doses, in which the compound of formula (I) was administered after carboplatin using either a 4 h or a 24 h gap, when both compounds were administered on the same day/consecutive days. The fifth group received both vehicles using the time interval of 4 h and all groups were dosed twice via the tail vein. Dosing was delayed by 1 day in any mice showing transient body weight loss of >10% at any time point.
# (§1) Carboplatin was purchased from Qilu Pharmaceutical Co. Ltd. as a solution (10 mg/mL in 5% (w/v) glucose in pure water). The compound of formula (I) was supplied as a powder by Basilea Pharmaceutica International Ltd. and was prepared freshly as a solution in Ethanol:PEG400:Citric acid 20 mM, at a ratio of 1:1:8 and at a final pH of 3.7, for immediate administration.
# (§2) Body weights and tumor volumes were determined at least twice per week, the latter by measuring two dimensions with calipers and applying the formula “V=(L×W^2)/2”, where V is the tumor volume, and L and W are the tumor length and width re-spectively. […] Mice were also culled if the BWL was determined to be >15% for 3 consecutive days. Any mice with >10% BWL, automatically were dosed on one of the following days, as soon as the BWL returned to <10%. All animal protocols were reviewed and approved by the relevant local committees in China, where the studies were performed.
# (§3) The statistical significance of efficacy were determined in two different ways using a) the endpoint on day 10 or day 14 depending on the study when it was necessary to cull the vehicle group because of tumor volume exceeding 1500 mm^3, and b) at the endpoint of day 31 in the first study when exponential curve fits were applied to estimate the rates of tumor growth in the different groups. The degree of an effect was quantified by the delta (A) treated/control ratio (ΔT/C) and the statistical significance of the effect was determined by a one-way analysis of variance (1W-ANOVA) with Holms-Sidak applied post-hoc for multiple determinations, where a p-value of <0.05 was considered statistically significant. In addition, an assessment of the combination effect was made based upon the Clarkes Combination Index (CCI), where the CCI=ΔT/CAB−(ΔT/CA*ΔT/CB) in which A and B are two different compounds and AB the combination thereof, where CCI<−0.1 indicates synergy (or a positive interaction), +0.1 (antagonism, or a negative interaction) and between −0.1 and +0.1 indicates additivity (no interaction); see O'Reilly et al. Anti Cancer Drugs 2011; 22:58-78.
# [2] = system: BR1282 TNBC PDX tumor; assay: second PDX combination study (compound of formula (I) first), BR1282
# Procedure: In a second PDX study, the same model was used as for the first study (TNBC BR1282 PDX model), but this time compound of formula (I) (8 mg/kg, i.v., qw, 5 mL/kg) was administered first and carboplatin (60 mg/kg, i.v., qw, 6 mL/kg) second using a 4 h gap between both administrations and compound of formula (I) was provided qw. Consequently, the mice received both compounds on the same day (4 h gap).
# as §1, §2, §3
# [3] = system: SKOV-3 s.c. xenografts; format: in vivo; details: day 23; monotherapy: Formula (I) 7 mg/kg iv 2qw; Carboplatin 60 mg/kg iv qw
# Procedure: The anti-tumor activity of the compound of formula (I) in combination with carboplatin was evaluated in an ovarian cancer model, using human SKOV-3 cells grown as a solid tumor xenograft subcutaneously (s.c.) in nude mice.
# The maximum tolerated dose (MTD) of the compound of formula (I) in combination with an optimal dose of carboplatin was defined in non-tumor bearing BALB/c nude mice in the experiments described above. […] Thus, in this study, using a human ovarian cell line derived xenograft (CDX) model, that schedule was applied and compared directly with the same order of administration with a 1 hr or 24 hr gap between compounds. In addition, the twice-weekly schedule was compared with a weekly schedule of 7 mg/kg BAL0891 (a weekly dose well below the MTD for compound of formula (I) monotherapy) using a 4 hr gap. Treatments continued until day 24 and tumor volumes and body weight were monitored until day 51.
# [4] = comparator Formula (I) monotherapy
smiles,measurement,setting,value
N.N.O=C([O-])C1(C(=O)[O-])CCC1.[Pt+2] [Carboplatin],Efficacy: ΔT/C Day 0 up to Day 31,"[1]; based on mean rate of growth (k), formula (I) 7 mg/kg 2qw i.v., carboplatin 60 mg/kg qw i.v., carboplatin first",0.75*
same,"Mean difference of mean rate of growth (k), Formula (I) vs. treatment",[1]; [4],−0.049
same,"Mean difference of mean rate of growth (k), Vehicle vs. treatment","[1]; comparator Vehicle, day 0 to latest day 31",0.0350
same,Efficacy: ΔT/C Day 10,"[1]; mean change in tumor volume, formula (I) 7 mg/kg 2qw i.v., carboplatin 60 mg/kg qw i.v., carboplatin first",0.74
same,Tolerability (Day 10) ΔI/C,[1]; mean fractional body weight change vs vehicle (BWday10/BWday0),0.97
same,Tolerability (Day 10) ΔBW (%),"[1]; mean ± SEM change in body weight, day 10",0.8 ± 1.2%
same,Efficacy: ΔT/C Day 0 up to Day 17,"[2]; based on mean rate of growth (k), formula (I) 8 mg/kg qw first, carboplatin 60 mg/kg qw 4 h later",0.96
same,"k means, Mean difference, Formula (I) vs. treatment",[2]; [4],−0.039
same,"Δ tumor volume on day 14, Mean difference, Formula (I) vs. treatment",[2]; [4],−350.8
same,"k means, Mean difference, Vehicle vs. treatment",[2]; comparator Vehicle,0.007
same,"Δ tumor volume on day 14, Mean difference, Vehicle vs. treatment",[2]; comparator Vehicle,71.5
same,Efficacy: ΔT/C Day 14,"[2]; mean change in tumor volume, formula (I) 8 mg/kg qw i.v. first, carboplatin 60 mg/kg qw i.v. 4 h later",0.93
same,Tolerability (Day 14) ΔT/C,[2]; mean fractional body weight change vs vehicle (BWday14/BWday0),1.00
same,Tolerability (Day 14) ΔBW (%),"[2]; mean ± SEM change in body weight, day 14",3.3 ± 2.6%
same,ΔT/C,[3],0.72
